{"source": "patent US20240425473A2", "about": "(priority 2021, published 2024)", "key": {"SARS-CoV-2 [1]": {"system": "SARS-CoV-2", "format": "cell-based"}, "SARS-CoV-2 [2]": {"system": "SARS-CoV-2", "format": "cell-based", "remark": "listed apart in the source"}, "CTPS1 [3]": {"molecular_target": "T1, CTPS1 (Homo sapiens, UniProt P17812)", "T1 sequence (P17812 1-591)": "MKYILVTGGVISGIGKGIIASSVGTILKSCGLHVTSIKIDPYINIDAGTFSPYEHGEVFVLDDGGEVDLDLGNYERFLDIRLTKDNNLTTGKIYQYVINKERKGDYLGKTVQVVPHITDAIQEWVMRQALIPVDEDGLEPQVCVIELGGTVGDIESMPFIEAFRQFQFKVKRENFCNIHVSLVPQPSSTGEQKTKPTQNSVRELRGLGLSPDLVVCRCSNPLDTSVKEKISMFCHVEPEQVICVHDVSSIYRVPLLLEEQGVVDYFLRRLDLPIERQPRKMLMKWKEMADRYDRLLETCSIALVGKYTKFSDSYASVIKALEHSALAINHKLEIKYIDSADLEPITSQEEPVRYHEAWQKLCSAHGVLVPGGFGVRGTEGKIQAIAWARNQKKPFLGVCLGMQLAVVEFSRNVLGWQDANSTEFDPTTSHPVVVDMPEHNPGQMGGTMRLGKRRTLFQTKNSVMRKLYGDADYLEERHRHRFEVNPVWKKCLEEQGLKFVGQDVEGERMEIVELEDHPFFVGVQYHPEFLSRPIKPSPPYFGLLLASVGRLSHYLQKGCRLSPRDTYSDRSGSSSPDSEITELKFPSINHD", "format": "binding", "parameters": "Flag; expressed in transfected cells; host or cells: 293T cells expressing Flag-CTPS1", "conditions": "293T cells expressing Flag-CTPS1"}, "IFN-β promoter activity": {"system": "IFN-β promoter activity", "format": "cell-based, human", "conditions": "for effect on IFN induction, compared with AE-1-10: 293T cells with SeV infection; for IFN induction: Sendai virus"}, "IRF3 deamidation": {"system": "IRF3 deamidation", "assay": "IRF3 deamidation by two-dimensional gel electrophoresis and immunoblotting", "format": "cell-based, human", "conditions": "Caco-2 cells expressing ORF8 or A549 cells expressing Nsp8; 5 μM"}, "[4]": {"system": "antiviral genes IFNB1, ISG56, CCL5 and Mx1", "format": "cell-based, human"}, "IFNB1 expression": {"system": "IFNB1 expression", "format": "cell-based, human", "conditions": "293T cells pre-treated 2 h, Sendai virus infection 9 h"}, "NF-κB promoter activity": {"system": "NF-κB promoter activity", "format": "cell-based, human", "conditions": "293T cells"}, "CTP synthesis": {"system": "CTP synthesis", "format": "cell-based, human"}, "SARS-CoV-2 [5]": {"system": "SARS-CoV-2", "parameters": "species or system mice", "conditions": "mouse, in vivo, ip, 35 mg/kg"}, "CTPS1 [6]": {"molecular_target": "T1, CTPS1", "format": "biochemical", "parameters": "made in house", "conditions": "with respect to UTP, 2 mM ATP, 2 mM L-glutamine, 0.1 mM GTP, Michaelis-Menten"}, "CTPS1 [7]": {"molecular_target": "T1, CTPS1", "assay": "Click-based cross-linking, affinity purification and mass spectrometry to identify cellular targets", "format": "binding", "parameters": "endogenous in cells", "conditions": "ranked lower than several other proteins; data not shown"}}, "note": "Read-outs that look alike come from different tables or passages of the source.", "data": [{"compound": "Cc1ccccc1NC(=O)c1cccc(NC(=O)CCl)c1", "note": "[B5]", "values": [{"measurement": "effect on viral titer", "setting": "SARS-CoV-2 [1]", "value": "better effect than C9"}, {"measurement": "reduction of viral RNA abundance relative to C9", "setting": "SARS-CoV-2 [2]", "value": "significant improvement compared to C9"}]}, {"compound": "COc1ccccc1NC(=O)c1cc(NC(=O)CCl)cs1", "note": "[B2]", "values": [{"measurement": "effect on viral titer", "setting": "SARS-CoV-2 [1]", "value": "reduced viral titer to the limit of detection"}, {"measurement": "reduction of viral RNA abundance compared to the vehicle (DMSO)", "setting": "SARS-CoV-2 [2]", "value": "~5 order of magnitude"}]}, {"compound": "COc1cccc(NC(=O)c2cc(NC(=O)CCl)cs2)c1", "note": "[B7]", "values": [{"measurement": "effect on viral titer", "setting": "SARS-CoV-2 [1]", "value": "reduced viral titer to the limit of detection"}, {"measurement": "reduction of viral RNA abundance compared to the vehicle (DMSO)", "setting": "SARS-CoV-2 [2]", "value": "~5 order of magnitude"}]}, {"compound": "C#CCOc1cccc(NC(=O)c2cccc([N+](=O)[O-])c2)c1", "note": "[BE-2-10]", "values": [{"measurement": "reaction (labeling) with CTPS1", "setting": "CTPS1 [3]", "value": "reacted with CTPS1 in a dose-dependent manner"}]}, {"compound": "O=C(CCl)Nc1cccc(C(=O)Nc2ncc[nH]2)c1", "note": "[C6]", "values": [{"measurement": "effect on IFN induction, compared with AE-1-10", "setting": "IFN-β promoter activity", "value": "modest effect"}]}, {"compound": "O=C(CCl)Nc1cccc(C(=O)NC2CCCC2)c1", "note": "[B4]", "values": [{"measurement": "reduction of viral RNA abundance relative to C9", "setting": "SARS-CoV-2 [2]", "value": "significant improvement compared to C9"}]}, {"compound": "O=C(CCl)Nc1csc(C(=O)Nc2ccccc2)c1", "note": "[C8]", "values": [{"measurement": "effect on IFN induction, compared with AE-1-10", "setting": "IFN-β promoter activity", "value": "improved effect to increase IFN induction"}]}, {"compound": "COc1ccccc1NC(=O)c1cccc(NC(=O)CCl)c1", "note": "[C5]", "values": [{"measurement": "antiviral activity in SARS-CoV-2 infection, compared to AE-1-10", "setting": "SARS-CoV-2 [1]", "value": "more robust antiviral activity"}, {"measurement": "effect on IFN induction, compared with AE-1-10", "setting": "IFN-β promoter activity", "value": "improved effect to increase IFN induction"}]}, {"compound": "COc1cccc(N(C)C(=O)c2cccc(NC(=O)CCl)c2)c1", "note": "[C2]", "values": [{"measurement": "effect on IFN induction, compared with AE-1-10", "setting": "IFN-β promoter activity", "value": "no effect"}]}, {"compound": "COc1cccc(NC(=O)c2cccc(NC(=O)CCl)c2)c1", "note": "[AE-1-10]", "values": [{"measurement": "viral yield", "setting": "SARS-CoV-2 [1]", "value": "reduced viral RNA and yield"}, {"measurement": "inhibition of IRF3 deamidation", "setting": "IRF3 deamidation", "value": "best efficacy to inhibit IRF3 deamidation"}, {"measurement": "antiviral gene expression", "setting": "[4]", "value": "elevated antiviral gene expression"}, {"measurement": "expression of antiviral genes (IFNB1, ISG56, CCL5, Mx1)", "setting": "[4]", "value": "elevated"}, {"measurement": "IFNB1 expression", "setting": "IFNB1 expression", "value": "increased IFNB1 expression in a dose-dependent manner"}, {"measurement": "IFN induction", "setting": "IFN-β promoter activity; CTPS1-depleted 293T cells", "value": "failed to do so"}, {"measurement": "IFN induction", "setting": "IFN-β promoter activity; control 293T cells", "value": "elevated IFN induction"}, {"measurement": "NF-κB activation", "setting": "NF-κB promoter activity", "value": "no effect"}, {"measurement": "[15N]CTP and [15N]CDP", "setting": "CTP synthesis", "value": "reduced [^15N]CTP and, much more so [^15N]CDP in a dose-dependent manner"}, {"measurement": "intracellular concentration of [15N]CTP and [15N]CDP", "setting": "CTP synthesis", "value": "reduced the intracellular concentration of [^15N]CTP and [^15N]CDP"}, {"measurement": "viral RNA", "setting": "SARS-CoV-2 [2]", "value": "reduced viral RNA"}]}, {"compound": "[N-]=[N+]=CC(=O)CC[C@H](N)C(=O)O", "note": "[DON, 6-diazo-5-oxo-L-norleucine, reference compound]", "values": [{"measurement": "Sendai virus-induced IFN-β gene expression", "setting": "IFN-β promoter activity; CTPS1 depleted and control 293T cells", "value": "elevated"}]}, {"compound": "CCCCCNC(=O)c1cccc(NC(=O)CCl)c1", "note": "[C9]", "values": [{"measurement": "antiviral activity in SARS-CoV-2 infection, compared to AE-1-10", "setting": "SARS-CoV-2 [1]", "value": "more robust antiviral activity"}, {"measurement": "reduction of SARS-CoV-2 titer", "setting": "SARS-CoV-2 [1]", "value": "~3 order of magnitude"}, {"measurement": "protection against SARS-CoV-2 infection", "setting": "SARS-CoV-2 [5]", "value": "protect against infection"}, {"measurement": "effect on IFN induction, compared with AE-1-10", "setting": "IFN-β promoter activity", "value": "improved effect to increase IFN induction"}, {"measurement": "reduction of viral RNA abundance compared to the vehicle (DMSO)", "setting": "SARS-CoV-2 [2]", "value": "~2 order of magnitude"}]}, {"compound": "ORF7b: SARS-CoV-2 polypeptide transiently expressed in the 293T cells from which CTPS1 was purified", "values": [{"measurement": "Kcat", "setting": "CTPS1 [6]", "value": "0.0147 ± 0.006", "unit": "s⁻¹"}, {"measurement": "Km", "setting": "CTPS1 [6]", "value": "30.5 ± 21.5", "unit": "mM"}]}, {"compound": "COc1ccc(NC(=O)c2cccc(NC(=O)CCl)c2)cc1", "note": "[C4]", "values": [{"measurement": "effect on IFN induction, compared with AE-1-10", "setting": "IFN-β promoter activity", "value": "improved effect to increase IFN induction"}]}, {"compound": "C#CCOc1cccc(Nc2ncnc3ccc(NC(=O)CCl)cc23)c1", "note": "[Q6ca]", "values": [{"measurement": "cellular target identification", "setting": "CTPS1 [7]", "value": "identification of CTPS1 as a cellular target"}]}, {"compound": "ORF8: SARS-CoV-2 polypeptide transiently expressed in the 293T cells from which CTPS1 was purified", "values": [{"measurement": "Kcat", "setting": "CTPS1 [6]", "value": "0.0212 ± 0.0137", "unit": "s⁻¹"}, {"measurement": "Km", "setting": "CTPS1 [6]", "value": "55.2 ± 50.3", "unit": "mM"}]}, {"compound": "O=C(CCl)Nc1cccc(C(=O)NC2CCCCC2)c1", "note": "[C1]", "values": [{"measurement": "effect on IFN induction, compared with AE-1-10", "setting": "IFN-β promoter activity", "value": "no effect"}]}, {"compound": "CCc1ccccc1NC(=O)c1cccc(NC(=O)CCl)c1", "note": "[B8]", "values": [{"measurement": "effect on viral titer", "setting": "SARS-CoV-2 [1]", "value": "better effect than C9"}, {"measurement": "reduction of viral RNA abundance relative to C9", "setting": "SARS-CoV-2 [2]", "value": "significant improvement compared to C9"}]}, {"compound": "O=C(Nc1ccccc1)c1ccc([N+](=O)[O-])s1", "note": "[C7]", "values": [{"measurement": "effect on IFN induction, compared with AE-1-10", "setting": "IFN-β promoter activity", "value": "modest effect"}]}, {"compound": "CCCCCNC(=O)c1ccc(NC(=O)CCl)s1", "note": "[B1]", "values": [{"measurement": "effect on viral titer", "setting": "SARS-CoV-2 [1]", "value": "reduced viral titer to the limit of detection"}, {"measurement": "reduction of viral RNA abundance compared to the vehicle (DMSO)", "setting": "SARS-CoV-2 [2]", "value": "~5 order of magnitude"}]}]}
